What follows are compounds tested against full length USP7 (Homo sapiens (Human), UniProt Q93009) (assay: Ub-AMC enzymatic assay with full-length USP7). Conditions: Table 1; 6 hours pre-incubation, Ub-AMC; read-out: IC50 (nM), USP7 activity in USP7 assay.
Sequence of full length USP7 (Q93009 whole entry): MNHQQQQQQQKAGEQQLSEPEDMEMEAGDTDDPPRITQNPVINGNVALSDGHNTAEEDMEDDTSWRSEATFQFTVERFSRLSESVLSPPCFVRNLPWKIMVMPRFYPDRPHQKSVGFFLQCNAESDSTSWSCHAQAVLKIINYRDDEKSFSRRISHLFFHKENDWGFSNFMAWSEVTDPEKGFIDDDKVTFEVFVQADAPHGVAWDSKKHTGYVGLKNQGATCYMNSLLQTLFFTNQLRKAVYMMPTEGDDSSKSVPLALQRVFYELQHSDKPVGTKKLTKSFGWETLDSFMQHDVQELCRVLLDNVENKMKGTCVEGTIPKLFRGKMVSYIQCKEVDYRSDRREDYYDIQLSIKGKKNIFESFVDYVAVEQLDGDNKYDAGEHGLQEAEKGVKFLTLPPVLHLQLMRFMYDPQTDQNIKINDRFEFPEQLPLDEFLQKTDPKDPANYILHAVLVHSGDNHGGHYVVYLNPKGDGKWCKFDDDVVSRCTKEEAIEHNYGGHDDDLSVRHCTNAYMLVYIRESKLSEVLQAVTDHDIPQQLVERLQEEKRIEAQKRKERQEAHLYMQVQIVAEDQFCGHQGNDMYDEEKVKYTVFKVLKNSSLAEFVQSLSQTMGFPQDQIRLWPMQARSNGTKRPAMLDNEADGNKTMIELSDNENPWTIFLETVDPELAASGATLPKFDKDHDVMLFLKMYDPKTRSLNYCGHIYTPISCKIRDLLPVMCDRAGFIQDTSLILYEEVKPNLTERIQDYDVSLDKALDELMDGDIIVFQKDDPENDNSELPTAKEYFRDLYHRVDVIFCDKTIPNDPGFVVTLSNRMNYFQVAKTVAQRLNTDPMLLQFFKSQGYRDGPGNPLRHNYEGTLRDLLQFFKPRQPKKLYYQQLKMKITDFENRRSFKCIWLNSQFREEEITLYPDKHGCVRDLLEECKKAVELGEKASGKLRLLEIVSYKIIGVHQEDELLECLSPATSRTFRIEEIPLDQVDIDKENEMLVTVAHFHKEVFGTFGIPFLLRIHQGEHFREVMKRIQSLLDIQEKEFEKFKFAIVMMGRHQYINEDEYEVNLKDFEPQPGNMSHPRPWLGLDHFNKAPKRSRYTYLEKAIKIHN
Format: biochemical
Experimental: Both constructs were overexpressed in E. coli BL21 (DE3). Cells were grown at 37° C. to an OD of 0.9, cooled to 16° C., induced with 500 μM isopropyl-1-thio-D-galactopyranoside (IPTG), incubated overnight at 16° C., collected by centrifugation, and stored at −80° C. Cell pellets were sonicated in lysis buffer (25 mM Tris pH 8, 1 M NaCl, and 10 mM BME) supplemented with 10 μg/ml phenylmethanesulfonylfluoride (PMSF) and the resulting lysate was centrifuged at 30,000×g for 40 min. Ni-NTA beads (Qiagen) were mixed with lysate supernatant for 2 hours, and washed with lysis buffer supplemented with 25 mM imidazole. The bound protein was eluted with lysis buffer supplemented with 300 mM imidazole. The sample was then concentrated to 1 ml (30 kDa concentrator; Amicon Ultra, Millipore), and run on a Superdex 200 (GE healthcare) in buffer containing 25 mM HEPES pH 7.5, 200 mM NaCl, and 1 mM DTT. Fractions were pooled, concentrated and frozen at −80° C.
Full length USP7 was tested for its activity in Ubiquitin-AMC assay in presence or absence of inhibitors. USP7 (5 nM) was pre-incubated for 6 hours at room temperature with different concentrations of inhibitors or DMSO as a control in 50 mM HEPES pH 7.5, 0.5 mM EDTA, 11 μM ovalbumin, and 5 mM DTT. Ubiquitin-AMC (Boston Biochem) was then added to a final concentration of 500 nM. The initial rate of the reaction was measured by collecting fluorescence data at one minute intervals over 30-minute period using a Clariostar fluorescence plate reader at excitation and emission wavelength of 345 and 445 nm respectively. The calculated initial rate values were plotted against inhibitor concentrations to determine IC50s. All the experimental data were plotted using Prism GraphPad. All assays for each compound were performed at least twice for each compound.
CN(C)CCC(=O)Nc1ccc2c(=O)n(CC3(O)CCN(C(=O)CCCCNC(=O)c4ccc5c(Cl)c6c(nc5c4)CCCC6)CC3)cnc2c1 showed an IC50 of 20 to 100 nM. O=C(CCN1CCOCC1)Nc1ccc2c(=O)n(CC3(O)CCN(C(=O)CCCCNC(=O)c4ccc5c(Cl)c6c(nc5c4)CCCC6)CC3)cnc2c1 gave an IC50 of 100 to 1000 nM. O=C(CCn1ccnc1)Nc1ccc2c(=O)n(CC3(O)CCN(C(=O)CCCCNC(=O)c4ccc5c(Cl)c6c(nc5c4)CCCC6)CC3)cnc2c1 was tested, and the IC50 was 20 to 100 nM. CN1CCN(CCC(=O)Nc2ccc3c(=O)n(CC4(O)CCN(C(=O)C(CCCNC(=O)c5ccc6c(Cl)c7c(nc6c5)CCCC7)Cc5ccccc5)CC4)cnc3c2)CC1 (centres unmarked) was tested, and the IC50 was less than 20 nM. For CN1CCN(CCC(=O)Nc2ccc3c(=O)n(CC4(O)CCN(C(=O)CNC(=O)c5ccc6c(Cl)c7c(nc6c5)CCCC7)CC4)cnc3c2)CC1, the IC50 was greater than 1000 nM. CN1CCN(CCC(=O)Nc2ccc3c(=O)n(CC4(O)CCN(C(=O)CCNC(=O)c5ccc6c(Cl)c7c(nc6c5)CCCC7)CC4)cnc3c2)CC1 showed an IC50 of 100 to 1000 nM. Work on CN1CCN(CCC(=O)Nc2ccc3c(=O)n(CC4(O)CCN(C(=O)CCCNC(=O)c5ccc6c(Cl)c7c(nc6c5)CCCC7)CC4)cnc3c2)CC1 yielded an IC50 of 20 to 100 nM. CN1CCN(CCC(=O)Nc2ccc3c(=O)n(CC4(O)CCN(C(=O)CCCCCNC(=O)c5ccc6nc7c(c(Cl)c6c5)CCCC7)CC4)cnc3c2)CC1 gave an IC50 of 20 to 100 nM. For CN1CCN(CCC(=O)Nc2ccc3c(=O)n(CC4(O)CCN(C(=O)C(CCNC(=O)c5ccc6c(Cl)c7c(nc6c5)CCCC7)Cc5ccccc5)CC4)cnc3c2)CC1 (centres unmarked), the IC50 was less than 20 nM. With CN1CCN(CCC(=O)Nc2ccc3c(=O)n(CC4(O)CCN(C(=O)C(CCCNC(=O)c5ccc6c(c5)CCCN6C(=O)CCl)Cc5ccccc5)CC4)cnc3c2)CC1 (centres unmarked) the IC50 was 20 to 100 nM. In the case of C=CS(=O)(=O)N1CCCc2cc(C(=O)NCCCC(Cc3ccccc3)C(=O)N3CCC(O)(Cn4cnc5cc(NC(=O)CCN6CCN(C)CC6)ccc5c4=O)CC3)ccc21 (centres unmarked), the IC50 is reported as 20 to 100 nM. In the case of CN1CCN(CCC(=O)Nc2ccc3c(=O)n(CC4(O)CCN(C(=O)C(CCCNC(=O)c5cnccc5Cl)Cc5ccccc5)CC4)cnc3c2)CC1 (centres unmarked), the IC50 is reported as greater than 1000 nM. With CN1CCN(CCC(=O)Nc2ccc3c(=O)n(CC4(O)CCN(C(=O)C(CCCNC(=O)c5ccc6c(Cl)c7c(nc6c5)CCCCC7)Cc5ccccc5)CC4)cnc3c2)CC1 (centres unmarked) the IC50 was less than 20 nM. With CN1CCN(CCC(=O)Nc2ccc3c(=O)n(CC4(O)CCN(C(=O)C(CCCNC(=O)c5ccc6c(Cl)c7c(nc6c5)CCC7)Cc5ccccc5)CC4)cnc3c2)CC1 (centres unmarked) the IC50 was less than 20 nM. CN1CCN(CCC(=O)Nc2ccc3c(=O)n(CC4(O)CCN(C(=O)C(CCCNC(=O)C5(C#N)CC5)Cc5ccccc5)CC4)cnc3c2)CC1 (centres unmarked) was tested, and the IC50 was 100 to 1000 nM. CN1CCN(CCC(=O)Nc2ccc3c(=O)n(CC4(O)CCN(C(=O)C(CCCNC(=O)c5cc(C(=O)CCl)cn5C)Cc5ccccc5)CC4)cnc3c2)CC1 (centres unmarked) gave an IC50 greater than 1000 nM. CN1CCN(CCC(=O)Nc2ccc3c(=O)n(CC4(O)CCN(C(=O)[C@H](Cc5ccccc5)NC(=O)CNC(=O)c5ccc6c(Cl)c7c(nc6c5)CCCC7)CC4)cnc3c2)CC1 gave an IC50 of less than 20 nM. In the case of CN1CCN(CCC(=O)Nc2ccc3c(=O)n(CC4(O)CCN(C(=O)[C@H](Cc5ccccc5)NC(=O)CCNC(=O)c5ccc6c(Cl)c7c(nc6c5)CCCC7)CC4)cnc3c2)CC1, the IC50 is reported as less than 20 nM. CN1CCN(CCC(=O)Nc2ccc3c(=O)n(CC4CCN(C(=O)C(CCCNC(=O)c5ccc6c(Cl)c7c(nc6c5)CCCC7)Cc5ccccc5)CC4)cnc3c2)CC1 (centres unmarked) was tested, and the IC50 was greater than 1000 nM. With CN1CCN(CCC(=O)Nc2ccc3c(=O)n(CC4(O)CCN(C(=O)[C@H](Cc5ccccc5)NC(=O)CN(C)C(=O)c5ccc6c(Cl)c7c(nc6c5)CCCC7)CC4)cnc3c2)CC1 the IC50 was less than 20 nM. For O=C(CCN1CCOCC1)Nc1ccc2c(=O)n(CC3(O)CCN(C(=O)[C@H](Cc4c[nH]cn4)NC(=O)CNC(=O)c4ccc5c(Cl)c6c(nc5c4)CCCC6)CC3)cnc2c1, the IC50 was less than 20 nM. In the case of O=C(CCN1CCOCC1)Nc1ccc2c(=O)n(CC3(O)CCN(C(=O)[C@H](CC4CCCCC4)NC(=O)CNC(=O)c4ccc5c(Cl)c6c(nc5c4)CCCC6)CC3)cnc2c1, the IC50 is reported as less than 20 nM. O=C(CCN1CCOCC1)Nc1ccc2c(=O)n(CC3(O)CCN(C(=O)[C@H](Cc4cscn4)NC(=O)CNC(=O)c4ccc5c(Cl)c6c(nc5c4)CCCC6)CC3)cnc2c1 gave an IC50 of less than 20 nM. Work on O=C(CCN1CCOCC1)Nc1ccc2c(=O)n(CC3(O)CCN(C(=O)[C@H](Cc4cc(F)cc(F)c4)NC(=O)CNC(=O)c4ccc5c(Cl)c6c(nc5c4)CCCC6)CC3)cnc2c1 yielded an IC50 of less than 20 nM. Work on O=C(NCCC[C@@H](Cc1ccccc1)C(=O)N1CCC(O)(Cn2cnc3cc(N4CCOCC4)ccc3c2=O)CC1)c1ccc2c(Cl)c3c(nc2c1)CCCC3 yielded an IC50 of 100 to 1000 nM. Compound O=C(CCN1CCOCC1)Nc1ccc2c(=O)n(CC3(O)CCN(C(=O)[C@@H](CCCNC(=O)c4ccc(/C=C/C(=O)N5CCCCC5)nc4)Cc4ccccc4)CC3)cnc2c1 has an IC50 greater than 1000 nM. CC(C)NC(=O)/C=C/c1ccc(C(=O)NCCC[C@@H](Cc2ccccc2)C(=O)N2CCC(O)(Cn3cnc4cc(NC(=O)CCN5CCOCC5)ccc4c3=O)CC2)cn1 gave an IC50 greater than 1000 nM. In the case of CN(C)C(=O)/C=C/c1ccc(C(=O)NCCC[C@@H](Cc2ccccc2)C(=O)N2CCC(O)(Cn3cnc4cc(NC(=O)CCN5CCOCC5)ccc4c3=O)CC2)cn1, the IC50 is reported as greater than 1000 nM.

Same assay, conditions: Table 2; 6 hours pre-incubation, Ub-AMC; read-out: IC50 (μM), USP7 activity in USP7 assay
With O=C(CCN1CCN(C(=O)c2ccc3c(Cl)c4c(nc3c2)CCCC4)CC1)N1CCC(O)(Cn2cnc3cc(Cl)ccc3c2=O)CC1 the IC50 was 100 to 1000 nM. O=C(CN1CCN(C(=O)c2ccc3c(Cl)c4c(nc3c2)CCCC4)CC1)N1CCC(O)(Cn2cnc3cc(Cl)ccc3c2=O)CC1 showed an IC50 of 20 to 100 nM. With C#CCNCCCC(Cc1ccccc1)C(=O)N1CCC(O)(Cn2cnc3cc(NC(=O)CCN4CCN(C)CC4)ccc3c2=O)CC1 (centres unmarked) the IC50 was 20 to 100 nM. C=CS(=O)(=O)NCCCC(Cc1ccccc1)C(=O)N1CCC(O)(Cn2cnc3cc(NC(=O)CCN4CCN(C)CC4)ccc3c2=O)CC1 (centres unmarked) was tested, and the IC50 was 20 to 100 nM. Work on C=CC(=O)NCCCC(Cc1ccccc1)C(=O)N1CCC(O)(Cn2cnc3cc(NC(=O)CCN4CCN(C)CC4)ccc3c2=O)CC1 (centres unmarked) yielded an IC50 of less than 20 nM. CN1CCN(CCC(=O)Nc2ccc3c(=O)n(CC4(O)CCN(C(=O)C(CCCNC(=O)c5ccc(/C=C6\CCCCC6=O)cc5)Cc5ccccc5)CC4)cnc3c2)CC1 (centres unmarked) gave an IC50 of 20 to 100 nM.

Same assay, conditions: Table 3; 6 hours pre-incubation, Ub-AMC; read-out: IC50 (μM), USP7 activity in USP7 assay
Work on O=C(CCN1CCOCC1)Nc1ccc2c(=O)n(CC3(O)CCN(C(=O)[C@H](Cc4ccccc4)NC(=O)COc4cccc5c(Cl)c6c(nc45)CCCC6)CC3)cnc2c1 yielded an IC50 of 20 to 100 nM. Work on O=C(NCCCC(Cc1ccccc1)C(=O)N1CCC(O)(Cn2cnc3cc(OCCN4CCOCC4)ccc3c2=O)CC1)c1ccc2c(Cl)c3c(nc2c1)CCCC3 (centres unmarked) yielded an IC50 of 20 to 100 nM. For O=C(CCN1CCOCC1)Nc1ccc2c(=O)n(CC3(O)CCN(C(=O)C(CCCNC(=O)c4ccc5c(Cl)cc(C(F)(F)F)nc5c4)Cc4ccccc4)CC3)cnc2c1 (centres unmarked), the IC50 was 100 to 1000 nM. Work on CN1CCN(CCC(=O)Nc2ccc3c(=O)n(CC4(O)CCN(C(=O)[C@@H](Cc5ccccc5)NC(=O)CNC(=O)c5ccc6c(Cl)c7c(nc6c5)CCCC7)CC4)cnc3c2)CC1 yielded an IC50 of 20 to 100 nM. CN1CCN(CCC(=O)Nc2ccc3c(=O)n(CC4(O)CCN(C(=O)[C@@H](Cc5ccccc5)NC(=O)CNC(=O)c5ccc6c(Cl)ccnc6c5)CC4)cnc3c2)CC1 was tested, and the IC50 was 20 to 100 nM. O=C(CCN1CCOCC1)Nc1ccc2c(=O)n(CC3(O)CCN(C(=O)[C@H](Cc4ccccc4)n4ccnn4)CC3)cnc2c1 gave an IC50 greater than 1000 nM. Cc1cc(Cl)c2ccc(C(=O)NCCCC(Cc3ccccc3)C(=O)N3CCC(O)(Cn4cnc5cc(NC(=O)CCN6CCOCC6)ccc5c4=O)CC3)cc2n1 (centres unmarked) gave an IC50 greater than 1000 nM. O=C(CCN1CCOCC1)Nc1ccc2c(=O)n(CC3(O)CCN(C(=O)C(CCCNC(=O)c4ccc5c(O)ccnc5c4)Cc4ccccc4)CC3)cnc2c1 (centres unmarked) gave an IC50 greater than 1000 nM. C=CC(=O)Nc1ccccc1-c1cn([C@@H](Cc2ccccc2)C(=O)N2CCC(O)(Cn3cnc4cc(NC(=O)CCN5CCOCC5)ccc4c3=O)CC2)nn1 gave an IC50 greater than 1000 nM. Compound C=CC(=O)Nc1cccc(-c2cn([C@@H](Cc3ccccc3)C(=O)N3CCC(O)(Cn4cnc5cc(NC(=O)CCN6CCOCC6)ccc5c4=O)CC3)nn2)c1 has an IC50 greater than 1000 nM. CN1CCN(CCC(=O)Nc2ccc3c(=O)n(CC4(O)CCN(C(=O)C(CCCNC(=O)c5ccc6c(Cl)cc(C7CCCCC7)nc6c5)Cc5ccccc5)CC4)cnc3c2)CC1 (centres unmarked) gave an IC50 of 20 to 100 nM. With CN1CCN(CCC(=O)Nc2ccc3c(=O)n(CC4(O)CCN(C(=O)C(CCCNC(=O)c5ccc6c(Cl)cc(-c7cscn7)nc6c5)Cc5ccccc5)CC4)cnc3c2)CC1 (centres unmarked) the IC50 was 20 to 100 nM. With CN1CCN(CCC(=O)Nc2ccc3c(=O)n(CC4(O)CCN(C(=O)C(CCCNC(=O)c5ccc6c(Cl)cc(-c7ccc(F)cc7)nc6c5)Cc5ccccc5)CC4)cnc3c2)CC1 (centres unmarked) the IC50 was 20 to 100 nM. With CN1CCN(CCC(=O)Nc2ccc3c(=O)n(CC4(O)CCN(C(=O)C(CCCNC(=O)c5ccc6c(Cl)cc(-c7ccccc7)nc6c5)Cc5ccccc5)CC4)cnc3c2)CC1 (centres unmarked) the IC50 was 100 to 1000 nM. CN1CCN(CCC(=O)Nc2ccc3c(=O)n(CC4(O)CCN(C(=O)C(CCCNC(=O)c5ccc6c(Cl)c7c(nc6c5)CCCC7)c5ccccc5)CC4)cnc3c2)CC1 (centres unmarked) showed an IC50 greater than 1000 nM. For COc1cccc(CC(CCCNC(=O)c2ccc3c(Cl)c4c(nc3c2)CCCC4)C(=O)N2CCC(O)(Cn3cnc4cc(NC(=O)CCN5CCN(C)CC5)ccc4c3=O)CC2)c1 (centres unmarked), the IC50 was greater than 1000 nM.

From patent US12503453B2, “USP7 inhibition” (Dana-Farber Cancer Institute, Inc., priority 2018, dated 2025)
